Results as given in PMC9693223 (Molecules, 2022).
Values joined by “and” are separate entries in the source; they are usually repeats but may differ in a detail not shown here. Equal entries are not always repeated. Where two headings read alike, the source gives them in different places.

What was measured:
TcrNT2 [1] = biological target: T1, TcrNT2 (Trypanosoma cruzi, UniProt Q4DHG0); test: Transport of [^3H]-thymidine by TcrNT2 expressed in L. mexicana Cas9^ΔNT1 (Km, inhibition); format: cell-based; settings: for ΔG° (Gibbs free energy of interaction): calculated from Km or Ki at 25 °C
Experimental: These values can be used to calculate the Gibbs free energy of interaction ΔG°, but these experiments cannot distinguish between the test compound being transported or merely binding to the transporter and inhibiting the transit of the [^3H]-thymidine.
Transport assays were conducted with radiolabeled nucleosides [methyl-^3H]-thymidine (20 Ci/mmol; PerkinElmer (Waltham, MA, USA)) and [2,8-^3H]-adenosine (40 Ci/mmol; American Radiolabeled Chemicals (ARC, St-Louis, MO, USA)). Cells were harvested from mid-log phase cultures by centrifugation and washed into an assay buffer (AB) as described, at a density of 1 × 10^8 cells mL^−1. Transport assays were then performed exactly as described previously, using an oil-stop protocol. Briefly, 100 µL of cell suspension (10^7 cells) was mixed with 100 µL of [^3H]-substrate at 2 × final concentration and incubated for a pre-set time prior to the addition of 800 µL of ice-cold AB containing a saturating concentration of unlabeled permeant (usually 1 or 2.5 mM) and immediate centrifugation through an oil layer to separate cells from extracellular radiolabel. The 100 µL of [^3H]-substrate could also contain unlabeled substrate or an inhibitor at 2 × concentration, as appropriate. Next, the microfuge tubes were flash frozen in liquid nitrogen; the tips with the cell pellets cut off and collected in scintillation tubes. Cells were solubilized by incubation in 2% SDS under gentle shaking on a rocking platform prior to the addition of scintillation fluid (Scintilogic U, Lablogic, Sheffield, UK). The tubes stored in the dark overnight before counting in a 300SL Hidex Scintillation Counter (Lablogic).
Michaelis-Menten constants (Km) were calculated by plotting transport rates of [^3H]-substrate against the concentration, using the Michaelis-Menten equation V0 = Vmax([substrate]/([substrate] + Km)) and non-linear regression in GraphPad Prism 8. Inhibition constants (Ki) were calculated using the Cheng-Prusoff equation: Ki = IC50/(1 + (L/Km)), where L represents the radiolabel concentration. The IC50 was obtained by a non-linear regression of the inhibition curve of transport rate versus inhibitor concentration, using an equation for a sigmoid curve with variable slope (GraphPad Prism 8). The Gibbs free energy ΔG° was obtained using the equation ΔG° = −RTln(Ki), in which R is the gas constant and T is the absolute temperature. As discussed previously, these equations apply to competitive rather than non-competitive inhibition. Given that only close analogues of the substrate were used as potential inhibitors and that Hill slopes were consistently close to −1, it is very likely that inhibition was indeed competitive.

[2] = biological target: P2/TbAT1 aminopurine transporter; settings: T. brucei P2; ref [16],[17]; cited from earlier work
P1 transporter = settings: T. brucei P1; ref [16],[17]; cited from earlier work
[3] = system: L. mexicana Cas9 promastigotes; test: Alamar blue drug sensitivity assay, L. mexicana Cas9 promastigotes; format: cell-based, Leishmania mexicana; settings: Leishmania mexicana, 120 h, 72 h + 48 h resazurin, at least 3 independent determinations, read-out: EC50 (µM) AVG ± SEM, Cas9
From the text: We used L. mexicana promastigotes of the Cas9 strain developed by Beneke at al. to generate the ΔNT1 strain, and from there the Cas9^ΔNT1+TcrNT2 (see below); The original Cas9 strain was generously donated by Prof. Eva Gluenz (University of Bern, Switzerland). All strains in standard HOMEM (GIBCO, Life Technologies, Paisley, UK) supplemented with 10% heat-inactivated fetal bovine serum (FBS; PAA Laboratories, Linz, Austria) and 1% of a penicillin–streptomycin solution (10,000 U mL^−1 each; Life Technologies) at 25 °C, as described.
The Alamar blue assay (resazurin sodium salt) was used to determine the drug sensitivity of the L. mexicana promastigotes in vitro. The assay is based on the reduction of resazurin sodium salt (blue and non-fluorescent) to resorufin (pink color and fluorescent) by live cells. HOMEM medium with 10% FBS (100 μL) was added to all wells of a white 96-well plate apart from the first well. 200 μL of a known concentration of test compounds was diluted in HOMEM medium and placed in the first well. Compounds were tested in one plate and every compound was diluted over two rows (23 concentrations), leaving the last well of every dilution as a negative control having 100 μL HOMEM medium. Next, 100 μL of L. mexicana culture at a density of 2 × 10^6 cells mL^−1 was added into every well in the plate and incubated for 72 h at a temperature of 25 °C after which resazurin sodium salt (Sigma) (20 μL of a solution of 12.5 mg in 100 mL PBS) was added and the plate was incubated under the same conditions for a further 48 h. Fluorescence was measured in a FLUOstar OPTIMA plate reader (BMG Labtech, Germany), at a wavelength of 544 nm for excitation and 620 nm for emission. The EC50 values and fluorescence data were determined and plotted by the GraphPad Prism 8 Software using an equation for a sigmoid curve with variable slope. Pentamidine was used as positive control and every experiment was performed 3–4 times independently.

[4] = system: intracellular T. cruzi amastigotes; settings: T. cruzi in vitro; ref [16]; read-out: EC50 against T. cruzi in vitro; cited from earlier work
[5] = system: L. mexicana Cas9^ΔNT1+TcrNT2 promastigotes; parameters: method as in de Almeida Fiuza et al. [41]; settings: L. mexicana Cas9^ΔNT1+TcrNT2 promastigotes; starred values; ref de Almeida Fiuza et al. [41]; read-out: EC50 (µM) AVG ± SEM, L. mexicana Cas9^ΔNT1+TcrNT2; cited from earlier work
[6] = system: L. mexicana Cas9 promastigotes; parameters: method as in de Almeida Fiuza et al. [41]; settings: starred values, ref de Almeida Fiuza et al. [41], read-out: EC50 (µM) AVG ± SEM, Cas9; cited from earlier work
[7] = system: L. mexicana Cas9^ΔNT1 promastigotes; parameters: method as in de Almeida Fiuza et al. [41]; settings: L. mexicana Cas9^ΔNT1 promastigotes; starred values; ref de Almeida Fiuza et al. [41]; read-out: EC50 (µM) AVG ± SEM, L. mexicana Cas9^ΔNT1; cited from earlier work
TcrNT2 [8] = biological target: T1, TcrNT2; settings: TcrNT2 expressed in T. brucei, cited from earlier work
[9] = system: L. mexicana Cas9^ΔNT1 promastigotes; test: Transport of [^3H]-thymidine by L. mexicana Cas9^ΔNT1 promastigotes; format: cell-based, Leishmania mexicana; settings: 0.05 µM [^3H]-thymidine, Cas9^ΔNT1 cells, over 180 s
Experimental: It is well documented that the NT1 transport activity is responsible for the uptake of adenosine and of pyrimidine nucleosides in Leishmania spp.. […] We thus assessed the uptake of these two nucleosides in Cas9^ΔNT1. […] In contrast, the transport of 0.1 µM of [^3H]-adenosine by L. mexicana Cas9^ΔNT1 promastigotes was virtually abolished and became statistically identical to the uptake in the presence of 1 mM unlabeled adenosine (p > 0.05).
Figure 1 [^3H]-Adenosine and [^3H]-Thymidine transport by L. mexicana Cas9 and L. mexicana Cas9^ΔNT1. (A). Transport of 0.1 µM of [^3H]-adenosine by L. mexicana Cas9 and L. mexicana Cas9^ΔNT1 was measured over 20 s in the presence or absence of 1 mM unlabeled adenosine. (B). Transport of 0.05 μM of [^3H]-thymidine by L. mexicana Cas9 and L. mexicana Cas9^ΔNT1 was measured over 180 s in the presence or absence of 1 mM unlabeled thymidine, respectively. Symbols represent the average of triplicate determinations in a single representative experiment and error bars represent ± SEM.
Transport assays were conducted with radiolabeled nucleosides [methyl-^3H]-thymidine (20 Ci/mmol; PerkinElmer (Waltham, MA, USA)) and [2,8-^3H]-adenosine (40 Ci/mmol; American Radiolabeled Chemicals (ARC, St-Louis, MO, USA)). Cells were harvested from mid-log phase cultures by centrifugation and washed into an assay buffer (AB) as described, at a density of 1 × 10^8 cells mL^−1. […]

NT1 transport activity = system: NT1 transport activity; parameters: method as in PMID 28453984; settings: NT1 transport activity in L. mexicana; ref [36]; cited from earlier work

T1 sequence (Q4DHG0 entry or part of it): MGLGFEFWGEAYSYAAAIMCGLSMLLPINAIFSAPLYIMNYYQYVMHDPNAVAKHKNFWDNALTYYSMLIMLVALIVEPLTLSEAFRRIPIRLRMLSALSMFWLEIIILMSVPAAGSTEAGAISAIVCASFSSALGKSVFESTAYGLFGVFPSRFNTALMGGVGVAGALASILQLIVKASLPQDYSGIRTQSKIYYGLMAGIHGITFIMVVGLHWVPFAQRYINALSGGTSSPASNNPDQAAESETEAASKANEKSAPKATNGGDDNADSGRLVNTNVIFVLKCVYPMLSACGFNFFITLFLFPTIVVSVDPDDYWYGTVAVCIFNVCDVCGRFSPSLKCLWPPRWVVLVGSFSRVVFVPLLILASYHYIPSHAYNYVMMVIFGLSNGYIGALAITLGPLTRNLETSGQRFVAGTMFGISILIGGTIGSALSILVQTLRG

Row | SMILES | Ki (TcrNT2 [1]) | ΔG° (Gibbs free energy of interaction) (TcrNT2 [1]) | Ki [2] | Ki (P1 transporter) | EC50 [3] | EC50 [4] | δ(ΔG°) with respect to ΔG° of thymidine (TcrNT2 [1]; change in ΔG° relative to thymidine) | EC50 [5] | EC50 [6] | EC50 [7] | Ki (TcrNT2 [8]; earlier characterization, ref Campagnaro et al. [30], read-out: Ki on thymidine transport by TcrNT2) | rate of [^3H]-thymidine transport [9] | Km (TcrNT2 [8]; ref [30], read-out: Km of thymidine uptake by TcrNT2) | Km (NT1 transport activity)
1 | Nc1ncnc2c1c(Br)cn2[C@@H]1O[C@H](CO)[C@@H](O)[C@H]1O [TH1003, 7-bromo-tubercidin] | 784 ± 41 µM | -4.73 kcal/mol | < 5 µM | < 5 µM | 0.16 ± 0.018 µM |  |  |  |  |  |  |  |  | 
2 | Nc1ncnc2c1c(-c1ccccn1)cn2[C@@H]1O[C@H](CO)[C@@H](O)[C@H]1O [7-(2-pyridyl)-tubercidin] |  |  | < 5 µM | < 5 µM |  |  |  |  |  |  |  |  |  | 
3 | Nc1ncnc2c1ccn2[C@@H]1O[C@H](CO)[C@@H](O)[C@H]1O [Tubercidin, tubercidin] | 852 ± 2 µM | -4.18 kcal/mol |  |  | 0.43 ± 0.15 µM | 0.34 µM | -4.78 kcal/mol | 0.82 ± 0.13 µM | 1.02 ± 0.16 µM | 25.7 ± 0.94 µM | 700 ± 110 µM |  |  | 
4 | Cc1cn([C@H]2C[C@H](O)[C@@H](CO)O2)c(=O)[nH]c1=O [thymidine] |  | -8.96 kcal/mol |  |  |  |  |  |  |  |  |  | 0.00004 ± 0.000006 pmol(10^7 cells)^−1 s^−1 | ~0.2 µM and 0.223 µM and 0.22 µM | 11.2 ± 2.4 µM
